# Assay results reported in paper PMC10572563, “Application of Pluronics for Enhancing Aqueous Solubility of Lipophilic Microtubule Destabilizing Compounds on the Sea Urchin Embryo Model” (International Journal of Molecular Sciences, 2023).
# Where “and” joins values, the source holds several entries; their conditions need not be identical. Equal entries are not always repeated. Where two headings read alike, the source gives them in different places.
# Assays:
# [1] = Aqueous solubility of chalcones in PBS or Pluronic solutions (UV absorbance of saturated supernatant); type: physicochemical; conditions: for Increase of solubility: Pluronic P123 concentration up to 10%, 25 °C; for Increase of solubility / solubility: PBS pH 7.4; for Enhancement of solubility in aqueous medium: in the presence of 5% Pluronic 123; for solubility: phosphate-buffered saline (PBS) without Pluronics, aqueous with cosolvent or surfactant or cyclodextrin, kinetic from dmso stock, without Pluronics
# Procedure: The absorbance of chalcone solutions in DMSO was measured using an Ultrospec 1100 Pro UV/Vis spectrophotometer. […] To this end, 100 mg/mL solutions of 3 and 4 in DMSO were prepared and diluted 10-fold either with neat PBS or with Pluronic solutions of various concentrations. Dilution with PBS yielded the precipitation of the most part of the solute. The precipitated chalcones were removed via centrifugation at 9000 rpm for 5 min. The supernatant represented a saturated solution of the chalcone in the aqueous medium. Then, the supernatants were 10–1000-fold diluted with DMSO, their absorbance was measured at 367 nm for 3 or 350 nm for 4, and the aqueous solubility of chalcones was calculated using the εDMSO values obtained previously. The solubility values were measured in 2–4 repetitions and presented in the graphs as the mean ± SD for p < 0.05.
# [2] = Precipitation in 1 mM intermediate solutions (visual and microscopic examination); type: physicochemical; conditions: for Appearance of 1 mM/FSW intermediate solution: 1 mM in FSW; for Appearance of 1 mM solution in 5% F127: 1 mM in 5% F127, room temperature
# Procedure: Stock solutions of albendazole 1 and isoxazole 2 were prepared in DMSO and 2-pyrrolidone at 10 mM concentration, and stock solutions of chalcones 3 and 4 were prepared in DMSO at 10 mM concentration. […] The precipitation of compounds was analyzed via both visual and microscopic examination.
# sea urchin embryos = test system: sea urchin embryos
# Procedure: Toxic effects were assessed by exposing fertilized eggs (5−18 min after fertilization) to 2-fold decreasing concentrations of Pluronics. Embryo development was monitored at room temperature until the beginning of active feeding (four-arm mid-pluteus stage). The effects were detected at the following developmental stages: cleavage (2.5 and 5.5–6 h after fertilization), hatched mid-blastula (8.5–9.5 h), mesenchyme blastula (~11 h), prism (20–21 h), early pluteus (25–27 h), and four-arm pluteus (34–35 h) (Figure S2). The effects were estimated quantitatively as no observed effect concentration (NOEC), minimum effective concentration (MEC), and minimum lethal concentration (MLC).
# [3] = pH 7.0; cited from earlier work
# [4] = solvents in the in vivo sea urchin embryo assay
molecule,measurement,setting,value
COc1ccc(/C=C/C(=O)c2cc(OC)c(OC)c(OC)c2)cc1 [compound 4],Increase of solubility,[1],19 fold
same,Enhancement of solubility in aqueous medium,[1],enhanced by an order of magnitude
same,solubility,[1],88.7 µg/mL and 270 µM
same,Appearance of 1 mM/FSW intermediate solution,[2],formed a thick suspension of fine crystals
COc1ccc(/C=C/C(=O)c2cc(OC)c(OC)c(OC)c2)cc1O [compound 3],Increase of solubility,[1],13 fold
same,Enhancement of solubility in aqueous medium,[1],enhanced by an order of magnitude
same,solubility,[1],344 µg/mL and 1000 µM
same,Appearance of 1 mM/FSW intermediate solution,[2],clear without any visible signs of precipitation
C[S+](C)[O-] [DMSO],NOEC,sea urchin embryos; [4],0.2 % v/v
COc1ccc(-c2cnoc2-c2cc(OC)c(OC)c(OC)c2)cc1 [compound 2],Appearance of 1 mM solution in 5% F127,[2],remained clear throughout four days of storage at room temperature
same,Appearance of 1 mM/FSW intermediate solution,[2],"opaque, followed by the precipitation of crystals in the bottom of the vial"
CCO [EtOH],NOEC,sea urchin embryos; in vivo,0.5 % v/v
Pluronic P123,MEC relative to CMC,sea urchin embryos; in vivo,~ 6 times
same,Reduction of MEC,sea urchin embryos; in vivo,4 times
"CCCSc1ccc2nc(NC(=O)OC)[nH]c2c1 [compound 1, albendazole]",Appearance of 1 mM solution in 5% F127,[2],formed opaque 1 mM solution in 5% F127
same,Appearance of 1 mM/FSW intermediate solution,[2],formed a thick suspension of fine crystals
same,Aqueous solubility,[3],< 1 µg/mL
"O=C1CCCN1 [2-pyrrolidone, 2-Pyrrolidone]",NOEC,sea urchin embryos; [4],0.1 % v/v
